According to PMC10964431 (European journal of medicinal chemistry, 2024):

What was measured:
Test in all cases: Anti-SARS-CoV-2 activity against VOCs, WST-8 assay in VeroE6 cells
Type in all cases: cell-based
Conditions in all cases: one range stated for beta, gamma and omicron
SARS-CoV-2^929 (Omicron) = test system: SARS-CoV-2^929 (Omicron)
SARS-CoV-2^TY7 (Gamma) = test system: SARS-CoV-2^TY7 (Gamma)
SARS-CoV-2^TY8 (Beta) = test system: SARS-CoV-2^TY8 (Beta)

CC(C)(C)[C@H](NC(=O)C(Cl)(Cl)Cl)C(=O)N1C[C@H]2[C@@H]([C@H]1C(=O)N[C@H](C#N)C[C@@H]1CCCNC1=O)C2(C)C [Compound 5f, (1R,2S,5S)-N-((S)-1-Cyano-2-((S)-2-oxopiperidin-3-yl)ethyl)-3-((S)-3,3-dimethyl-2-(2,2,2-trichloroacetamido)butanoyl)-6,6-dimethyl-3-azabicyclo[3.1.0]hexane-2-carboxamide]
3–5 fold: loss of antiviral activity against omicron variant (SARS-CoV-2^929 (Omicron)) | loss of antiviral activity against gamma variant (SARS-CoV-2^TY7 (Gamma)) | loss of antiviral activity against beta variant (SARS-CoV-2^TY8 (Beta))
